Values joined by “and” are separate entries in the source; they are usually repeats but may differ in a detail not shown here. Equal entries are not always repeated.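 Each compound was tested at five concentrations against cells in 96-well plates for 48 hours. The concentration for 50% growth inhibition is given as GI50. At the TGI there is no net growth.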

These results are taken from PubChem BioAssay (NCI).

What all share (assay): inhibition of tumour cell growth, NCI panel, 48 h
In experiment [1] the test system is MALME-3M melanoma.
For experiment [2], the system named is U251 CNS.
The subject of experiment [3] is SF-295 CNS.
In experiment [4] the test system is SR leukemia.
Experiment [5] relates to LOX IMVI melanoma.
Experiment [6] deals with A549 NSCLC.
The subject of experiment [7] is CCRF-CEM leukemia.
In experiment [8] the test system is NCI-H23 lung.
Experiment [9] deals with RXF 393 renal.
The test system of experiment [10] is HCT-116 colon.

In the case of `COc1ccc(/C(Cl)=C(\C=O)c2cc(OC)c(OC)c(OC)c2)cc1OC`, the TGI in experiment [1] was greater than 92.6 µM; in experiment [2] it was greater than 61.2 µM; in [3], greater than 100 µM; in [4], greater than 100 µM; in experiment [5] it was greater than 100 µM; in [6], greater than 100 µM. Further, the TGI in [7], in experiment [8], in experiment [9] and in experiment [10] was greater than 100 µM in each case.
For the compound `C/C=C/CP(=O)(c1ccccc1)c1ccccc1`, the TGI in [1], in experiment [2], in experiment [3], in experiment [4], in experiment [5] and in experiment [6] was greater than 100 µM in each case. Also, the TGI in experiment [7], in experiment [8], in [9] and in [10] was greater than 100 µM each time.
With `CCOC(=O)CCc1c(C)c2ccc(O)cc2oc1=O`, the TGI in experiment [1], in [2], in experiment [3], in experiment [4], in [5] and in experiment [6] was greater than 100 µM throughout. Also, the TGI in [7], in [8], in experiment [9] and in experiment [10] was greater than 100 µM throughout.
Turning to `COc1ccc(C(=O)c2ccc(OC)cc2OC)cc1`, the GI50 in [1] is 5.83 µM; in experiment [2] it was 4.27 µM; in experiment [3], 2.33 µM; in experiment [4] it was 0.891 µM; in experiment [5], 4.47 µM; in [6] it was 5.55 µM. Also, the GI50 in [7] was 3.23 µM; in experiment [8], 3.79 µM; in experiment [9], 1.56 µM; in [10], 3.24 µM. Moreover, the TGI in experiment [1] is greater than 100 µM; in [2] it was greater than 100 µM; in [3], 9.4 µM; in experiment [4] it was greater than 100 µM; in experiment [5], greater than 100 µM; in experiment [6] it was greater than 100 µM. Also, the TGI is greater than 100 µM in [7], greater than 100 µM in [8], 6.15 µM in experiment [9] and 34.7 µM in experiment [10].
Regarding `CC1=Cc2cc3[n-]c(cc4nc(cc5[n-]c(cc1n2)c(C)c5CCC(=O)O)C(CCC(=O)O)=C4C)cc3C.[Cu+2]`, the GI50 in experiment [1] was > 1 µM and 7.39 µM; in [2] it was > 1 µM and 9.85 µM; in experiment [3] it was 51.3 µM; in experiment [4], > 1 µM and 45.1 µM; in [5], 28.1 µM; in experiment [6], > 1 µM and 70.9 µM. The GI50 in experiment [7] was > 1 µM and 12.1 µM; in experiment [8] it was > 1 µM and 24.9 µM; in [9], > 1 µM and 15.4 µM; in experiment [10], > 1 µM and 33.4 µM. For the same compound, the TGI in [1] is > 1 µM and 18.6 µM; in [2] it was > 1 µM and 23.2 µM; in experiment [3] it was greater than 96.9 µM; in experiment [4] it was greater than 75.7 µM; in experiment [5] it was greater than 65.3 µM; in experiment [6] it was greater than 100 µM. In addition, the TGI in experiment [7] was greater than 68.5 µM; in experiment [8], > 1 µM and 52.8 µM; in experiment [9] it was > 1 µM and 33.9 µM; in [10], greater than 100 µM.
For the compound `CCN(CC)CCCN1C(=O)c2c(c(C)c3c(oc4cc(O)ccc43)c2C)C1=O`, the GI50 in [1] was 1.83 µM; in [2], 1.74 µM; in [3], 1.84 µM; in experiment [4], 1.58 µM; in experiment [5], 1.79 µM; in [6] it was 1.85 µM. In addition, the GI50 in experiment [7] is 0.359 µM; in experiment [8] it was 1.85 µM; in [9], 1.54 µM; in experiment [10], 1.62 µM. Besides, the TGI in [1] turned out to be 3.51 µM; in [2] it was 3.2 µM; in [3], 3.32 µM; in [4], 3.99 µM; in experiment [5], 3.3 µM; in experiment [6] it was 3.54 µM. In addition, the TGI in [7] is 1.76 µM; in experiment [8] it was 3.72 µM; in experiment [9], 3.24 µM; in experiment [10], 3.11 µM.
Consider `Cc1cc(-c2cc(C)c(O)c(C(C)(C)C)c2)cc(C(C)(C)C)c1O`, for which the TGI was 28.3 µM and 41.1 µM in experiment [1]; 22.4 µM and 26.4 µM in experiment [2]; 23.1 µM and 23.2 µM in experiment [3]; 18.1 µM in experiment [4]; 29.4 µM and 23.6 µM in experiment [5]; 21.4 µM and 21.3 µM in [6]. The TGI in experiment [7] is 22.4 µM and 39.1 µM; in experiment [8], 26.2 µM and 24.7 µM; in experiment [9] it was 25.5 µM and 26.1 µM; in experiment [10] it was 19.5 µM and 22.8 µM.
As for `Cc1c(N(C(=O)c2cc(-c3cc(Cl)ccc3C(=O)N3Cc4ccccc4C[C@H]3CN3CCOCC3)n(C)c2C)c2ccc(O)cc2)cc(C#N)n1C`, the GI50 in [1] is 20.8 µM; in experiment [2], 18.9 µM; in experiment [3] it was 13.2 µM; in experiment [4] it was 6.25 µM; in [5], 14.6 µM; in experiment [6], 27.6 µM. In addition, the GI50 in [7] is 8.02 µM; in [8] it was 35.6 µM; in [9] it was 3.88 µM; in [10] it was 7.66 µM. Further, the TGI in experiment [1] is 64.3 µM; in experiment [2], greater than 100 µM; in [3], greater than 100 µM; in experiment [4], greater than 100 µM; in experiment [5] it was greater than 100 µM; in [6] it was greater than 100 µM. The TGI in experiment [7] is greater than 100 µM; in [8] it was greater than 100 µM; in experiment [9] it was 17.6 µM; in [10] it was greater than 100 µM.
